Where no end group is shown, it is not given here.
Assays:
[1] = test system: Smc3-GFP (cohesin holocomplex) in yeast protein extract; experiment: Microscale thermophoresis (MST) binding in yeast cell extract; settings: 10 μM CIP3-TAT (Fig S3; method b75: 5 μM), extract of yAM-945 strain, MST binding mode, no binding constants
Experimental: We validated the in vitro binding of CIP3 to Smc3 by exploring the formation of the complex in a yeast cell extract in which Smc3 was fused to GFP. Protein extract from the yAM-945 strain containing Smc3-GFP was supplemented with 10 μM CIP3-TAT and analyzed by microscale thermophoresis (MST) in binding mode. In this assay, the migration of a fluorescent protein in a microscale temperature gradient is monitored. Changes in the physical-chemical properties of the protein, induced by interaction with another protein or a small molecule, will change the migration properties of the protein. While biochemical constants of the binding cannot be determined under these conditions, as the concentration of Smc3-GFP in the extract is undetermined.
Yeast strain yAM-945 cells containing Smc3-GFP were grown in SD-URA galactose to mid-log phase. Cells were collected by centrifugation and washed with water. The cell pellet was resuspended in 350 μl of MST Buffer (NanoTemper) supplemented with 0.05% Tween-20 (Sigma). Glass beads were added, and cells were lyzed by 4 cycles of 1 minute in a bullet blender (next advance). The protein extract was clarified by centrifugation at 1000 g for 5 minutes. […] The formation of the CIP3-TAT and cohesin complex was analyzed by Monolith NT.115 (NanoTemper) in the binding mode that detects the formation of complexes without calculating the binding constants.

[2] = biological target: T1, Smc3 head domain (Saccharomyces cerevisiae, UniProt P47037); experiment: Field-effect biosensing (FEB Agile R100) binding of peptide to Smc3 head domain; settings: 500 nM peptide immobilized on graphene chip, Hill fit or kon/koff
T1 construct: C′ terminal (amino acids 1001-1230); linker […]; made in house; host or cells: E. coli BL21
T1 sequence (P47037 with tags, fused parts or gaps): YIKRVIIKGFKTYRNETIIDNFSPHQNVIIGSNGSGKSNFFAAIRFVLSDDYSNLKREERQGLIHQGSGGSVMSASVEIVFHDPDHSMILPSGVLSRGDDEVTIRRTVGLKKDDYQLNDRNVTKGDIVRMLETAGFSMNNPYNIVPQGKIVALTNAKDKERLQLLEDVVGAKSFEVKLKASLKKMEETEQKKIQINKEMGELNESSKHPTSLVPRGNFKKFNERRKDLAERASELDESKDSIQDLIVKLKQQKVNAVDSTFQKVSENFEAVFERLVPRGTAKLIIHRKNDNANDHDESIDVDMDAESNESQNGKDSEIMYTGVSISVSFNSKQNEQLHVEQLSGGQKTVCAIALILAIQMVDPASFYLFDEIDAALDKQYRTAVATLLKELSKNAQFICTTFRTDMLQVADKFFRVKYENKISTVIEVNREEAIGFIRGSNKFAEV
Experimental: Accordingly, we explored the ability of CIP3 to bind Smc3 in-vitro. We synthesized CIP3-TAT and purified it (Figures S2A and S2B. Purification of CIP3-TAT and Smc3 head domain, related to Figure 3), and the kinetic binding of the peptide to a purified Smc3 head domain (Figures S2C and S2D. Purification of CIP3-TAT and Smc3 head domain, related to Figure 3) was explored by FEB Agile R100 (Figures 3C and 3D). The binding kinetics is determined by measuring the current of the chip that is changed when the analyzed molecules form a complex. The peptide was immobilized on the sensor chip, and the analyte, purified Smc3 head domain, was applied in solution to the chip. The changes in the current were monitored as increasing concentrations of analyte were applied to the chip. […]
The binding kinetics of cohesin-inhibiting peptide 3 (CIP3) to Smc3 were measured by field-effect biosensing (FEB) Agile R100 label-free binding assay (Cardea), following their standard protocol, and as we have done previously,.[65]^,[66]^,[67] […] Next, PBS was aspirated, and the changes in the baseline current were monitored in real-time, using 20 μM, 50 μM, 100 μM, 200 μM, 500 μΜ, 1000 μM, 1500 μM, 2000 μM, and 4000 μM of purified Smc3 head domain. Kd values were calculated using DataLINE 2.0 software by applying either a Hill equation fit or using kon and koff values at a single concentration. […]

## KRFKDMEYLSGGEKTGGYGRKKRRQRRR [CIP3-TAT]
[1]
  complex formation with Smc3-GFP/cohesin: supported the formation of the Smc3/CIP3 complex
[2]; with ATP (10 mM), Smc3 incubated with ATP before measuring, Smc3 head domain 20-4000 μM (0.02–4 mM)
  Kd: 544.2 ± 0.06 nM
[2]; without ATP, Smc3 head domain 20-4000 μM (0.02–4 mM) in PBS
  Kd: 53.86 ± 0.03 nM
